Measured values taken from the CheMixHub viscosity set.

Assay: xn = mol fraction of the nth substance listed

Cc1cccc(C)c1 + O=C1CCCO1
viscosity [mPa·s], 101.33 kPa
Details | x2 = 0.1012 | x2 = 0.214 | x2 = 0.3091 | x2 = 0.4022 | x2 = 0.5343 | x2 = 0.5955 | x2 = 0.7101 | x2 = 0.8371 | x2 = 0.9027
293.15 K | 0.69 | 0.777 | 0.859 | 0.948 | 1.093 | 1.169 | 1.332 | 1.544 | 1.671
298.15 K | 0.648 | 0.725 | 0.798 | 0.88 | 1.016 | 1.088 | 1.235 | 1.437 | 1.552
303.15 K | 0.61 | 0.679 | 0.752 | 0.829 | 0.951 | 1.013 | 1.147 | 1.325 | 1.431
308.15 K | 0.573 | 0.636 | 0.692 | 0.761 | 0.875 | 0.936 | 1.06 | 1.226 | 1.323

Cc1ccccc1N + CC(=O)O
viscosity [mPa·s], 100 kPa
Details | x1 = 0.1051 | x1 = 0.1945 | x1 = 0.2862 | x1 = 0.3854 | x1 = 0.4952 | x1 = 0.5994 | x1 = 0.6874 | x1 = 0.7658 | x1 = 0.8879
303.15 K | 1.3 | 1.51 | 1.73 | 1.96 | 2.2 | 2.43 | 2.62 | 2.79 | 3.04
308.15 K | 1.2 | 1.38 | 1.56 | 1.75 | 1.96 | 2.15 | 2.31 | 2.44 | 2.65
313.15 K | 1.11 | 1.27 | 1.42 | 1.59 | 1.76 | 1.93 | 2.06 | 2.17 | 2.34
318.15 K | 1.02 | 1.15 | 1.28 | 1.42 | 1.57 | 1.7 | 1.81 | 1.91 | 2.04

C1CC[NH2+]C1.CCCCCCCC(=O)[O-] + CC#N
viscosity [mPa·s], 101 kPa
Details | x1 = 0.1601 | x1 = 0.2228 | x1 = 0.2843 | x1 = 0.3982 | x1 = 0.4849 | x1 = 0.609 | x1 = 0.6946 | x1 = 0.7891 | x1 = 0.9081
293.15 K | 5.42 | 6.71 | 7.22 | 11.37 | 13.54 | 18.24 | 24.41 | 33.6 | 51.93
298.15 K | 4.61 | 6.42 | 7.9 | 9.98 | 12.08 | 16.32 | 22.17 | 30.5 | 44.73
303.15 K | 3.37 | 3.58 | 5.31 | 8.14 | 9.96 | 14.01 | 17.35 | 24.21 | 35.95
308.15 K | 2.41 | 3.39 | 5.02 | 7.88 | 9.48 | 13.07 | 15.79 | 21.95 | 30.54
313.15 K | 1.92 | 2.99 | 4.35 | 6.59 | 8.46 | 10.7 | 14.2 | 18.22 | 25.69

Nc1ccccc1Cl + Cc1ccc(Cl)cc1
viscosity [mPa·s], 101 kPa
Details | x1 = 0.1012 | x1 = 0.2102 | x1 = 0.3125 | x1 = 0.4056 | x1 = 0.5142 | x1 = 0.6125 | x1 = 0.6952 | x1 = 0.7859 | x1 = 0.8859
303.15 K | 0.9617 | 1.175 | 1.405 | 1.644 | 1.963 | 2.287 | 2.586 | 2.936 | 3.344
308.15 K | 0.8921 | 1.097 | 1.318 | 1.543 | 1.833 | 2.12 | 2.377 | 2.674 | 3.014
313.15 K | 0.8377 | 1.031 | 1.238 | 1.446 | 1.711 | 1.968 | 2.195 | 2.451 | 2.737
318.15 K | 0.7836 | 0.9716 | 1.17 | 1.368 | 1.616 | 1.852 | 2.054 | 2.275 | 2.511

O=S1(=O)CCCC1 + CCCCCO
viscosity [mPa·s], 101 kPa
Details | x1 = 0.1119 | x1 = 0.2324 | x1 = 0.3323 | x1 = 0.4328 | x1 = 0.5236 | x1 = 0.6267 | x1 = 0.7208 | x1 = 0.8145 | x1 = 0.9043
303.15 K | 2.686 | 2.749 | 2.951 | 3.218 | 3.489 | 3.956 | 4.594 | 5.618 | 7.273
308.15 K | 2.366 | 2.416 | 2.578 | 2.807 | 3.082 | 3.491 | 4.077 | 4.986 | 6.441
313.15 K | 2.096 | 2.14 | 2.278 | 2.479 | 2.729 | 3.111 | 3.644 | 4.454 | 5.735

O=S1(=O)CCCC1 + CCO
viscosity [mPa·s], 101 kPa
Details | 293.15 K | 298.15 K | 303.15 K | 308.15 K | 313.15 K | 323.15 K
x1 = 0.06211 | 1.21 | 1.103 | 1.006 | – | 0.845 | 0.714
x1 = 0.068 | – | – | 1.008 | 0.9247 | 0.8482 | –
x1 = 0.1147 | – | – | 1.063 | 0.976 | 0.8945 | –
x1 = 0.131 | 1.316 | 1.197 | 1.094 | – | 0.919 | 0.778
x1 = 0.2039 | 1.49 | 1.35 | 1.228 | – | 1.031 | 0.875
x1 = 0.2119 | – | – | 1.241 | 1.135 | 1.039 | –
x1 = 0.271 | – | – | 1.38 | 1.264 | 1.155 | –
x1 = 0.283 | 1.734 | 1.57 | 1.421 | – | 1.192 | 1.009
x1 = 0.3691 | 2.087 | 1.883 | 1.699 | – | 1.421 | 1.202
x1 = 0.374 | – | – | 1.696 | 1.546 | 1.417 | –
x1 = 0.4622 | 2.558 | 2.292 | 2.09 | – | 1.734 | 1.467
x1 = 0.4742 | – | – | 2.116 | 1.922 | 1.755 | –
x1 = 0.5688 | 3.306 | 2.96 | 2.668 | – | 2.207 | 1.857
x1 = 0.5738 | – | – | 2.691 | 2.436 | 2.216 | –
x1 = 0.6865 | 4.608 | 4.075 | 3.682 | – | 3.001 | 2.511
x1 = 0.7403 | – | – | 4.239 | 3.82 | 3.446 | –
x1 = 0.8141 | 6.959 | 6.153 | 5.503 | – | 4.423 | 3.632
x1 = 0.8574 | – | – | 6.141 | 5.47 | 4.899 | –

Nc1ccccc1Cl + Cc1cccc(Cl)c1
viscosity [mPa·s], 101 kPa
Details | x1 = 0.1012 | x1 = 0.2056 | x1 = 0.3125 | x1 = 0.4056 | x1 = 0.5026 | x1 = 0.6025 | x1 = 0.7145 | x1 = 0.818 | x1 = 0.91
303.15 K | 0.9087 | 1.109 | 1.348 | 1.587 | 1.867 | 2.19 | 2.595 | 3.009 | 3.408
308.15 K | 0.8581 | 1.047 | 1.269 | 1.489 | 1.743 | 2.032 | 2.386 | 2.74 | 3.073
313.15 K | 0.812 | 0.99 | 1.199 | 1.402 | 1.634 | 1.893 | 2.205 | 2.507 | 2.786
318.15 K | 0.7685 | 0.9398 | 1.138 | 1.329 | 1.544 | 1.78 | 2.056 | 2.316 | 2.545

Nc1ccccc1Cl + Clc1ccccc1Cl
viscosity [mPa·s], 101 kPa
Details | x1 = 0.1063 | x1 = 0.2111 | x1 = 0.3145 | x1 = 0.4164 | x1 = 0.517 | x1 = 0.6162 | x1 = 0.7141 | x1 = 0.8107 | x1 = 0.906
303.15 K | 1.4 | 1.584 | 1.786 | 2.008 | 2.251 | 2.516 | 2.805 | 3.119 | 3.458
308.15 K | 1.295 | 1.461 | 1.642 | 1.84 | 2.054 | 2.287 | 2.539 | 2.81 | 3.101
313.15 K | 1.192 | 1.342 | 1.506 | 1.683 | 1.875 | 2.081 | 2.303 | 2.54 | 2.792
318.15 K | 1.102 | 1.24 | 1.39 | 1.551 | 1.724 | 1.909 | 2.105 | 2.313 | 2.532
